These results are taken from patent US10030047B2 (Hoffmann-La Roche Inc., priority 2015, dated 2018).

Converted amounts (≈) assume the structure as drawn.

One may read the MIC as the lowest concentration that inhibits growth of the organism.

The assay deals with A. baumannii strain ATCC19606. The assay can be described thus: Minimum inhibitory concentration (MIC) determination, microbroth dilution (CLSI). The class given is cell-based. To be noted: Acinetobacter baumannii; A. baumannii ATCC19606; CAMHB; read after 20 hours; >=80% growth inhibition; read-out: ATCC19606 MIC. A digest of the protocol: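 After 20 h at 35±2 °C, MIC taken visually and by OD 600 nm as the lowest concentration giving ≥80% growth inhibition. Bacteria (~5×10^5 CFU/ml) were tested per CLSI microbroth dilution against twofold serial compound dilutions in cation-adjusted Mueller Hinton broth.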
With `CN1C(=O)[C@H](CCCCN)NC(=O)[C@H](CCCN)NCc2cccnc2Sc2ccc(Cl)c(F)c2CNC(=O)[C@@H]1Cc1c[nH]c2ccccc12` [Example 52, (11S,14S,17S)-14-(4-Amino-butyl)-11-(3-amino-propyl)-23-chloro-22-fluoro-17-(1H-indol-3-ylmethyl)-16-methyl-2-thia-4,10,13,16,19-pentaaza-tricyclo[19.4.0.0*3,8*]pentacosa-1(25),3(8),4,6,21,23-hexaene-12,15,18-trione], the minimum inhibitory concentration (MIC) amounted to 0.5 µg/mL (≈ 0.691 µM). The figure for `CN1C(=O)[C@H](CCCCN)NC(=O)[C@H](CCCN)NCc2cccnc2Sc2cccc(C(F)(F)F)c2CNC(=O)[C@@H]1Cc1c[nH]c2ccccc12` [Example 53, (11S,14S,17S)-14-(4-Amino-butyl)-11-(3-amino-propyl)-17-(1H-indol-3-ylmethyl)-16-methyl-22-trifluoromethyl-2-thia-4,10,13,16,19-pentaaza-tricyclo[19.4.0.0*3,8*]pentacosa-1(25),3,5,7,21,23-hexaene-12,15,18-trione] is 1 µg/mL (≈ 1.35 µM); for `CN1C(=O)[C@H](CCCCN)NC(=O)[C@H](CCCN)NCc2cccnc2Sc2c(Cl)ccc(F)c2CNC(=O)[C@@H]1Cc1c[nH]c2ccccc12` [Example 54, (11S,14S,17S)-14-(4-Amino-butyl)-1-(3-amino-propyl)-25-chloro-22-fluoro-17-(1H-indol-3-ylmethyl)-16-methyl-2-thia-4,10,13,16,19-pentaaza-tricyclo[19.4.0.0*3,8*]pentacosa-1(25),3(8),4,6,21,23-hexaene-12,15,18-trione] it is 1 µg/mL (≈ 1.38 µM); for `Cc1cc(Cl)cc2c1Sc1ccccc1CN[C@@H](CCCN)C(=O)N[C@@H](CCCCN)C(=O)N(C)[C@@H](Cc1c[nH]c3ccccc13)C(=O)NC2` [Example 55, (12S,15S,18S)-15-(4-Amino-butyl)-18-(3-amino-propyl)-6-chloro-12-(1H-indol-3-ylmethyl)-4,13-dimethyl-2-thia-10,13,16,19-tetraaza-tricyclo[19.4.0.0*3,8*]pentacosa-1(25),3,5,7,21,23-hexaene-11,14,17-trione] it is 0.5 µg/mL (≈ 0.696 µM). For the compound `CN1C(=O)[C@H](CCCCN)NC(=O)[C@H](CCCN)NCc2cc(F)ccc2Sc2ccccc2CNC(=O)[C@@H]1Cc1c[nH]c2ccccc12` [Example 56, (12S,15S,18S)-15-(4-Amino-butyl)-18-(3-amino-propyl)-23-fluoro-12-(1H-indol-3-ylmethyl)-13-methyl-2-thia-10,13,16,19-tetraaza-tricyclo[19.4.0.0*3,8*]pentacosa-1(25),3,5,7,21,23-hexaene-11,14,17-trione], the MIC worked out at 16 µg/mL (≈ 23.3 µM). On to `Cc1[nH]c2ccccc2c1C[C@H]1C(=O)NCc2cc(Cl)ccc2Sc2ccccc2CN[C@@H](CCCN)C(=O)N[C@@H](CCCCN)C(=O)N1C` [Example 57, (12S,15S,18S)-15-(4-Amino-butyl)-18-(3-amino-propyl)-6-chloro-13-methyl-12-(2-methyl-1H-indol-3-ylmethyl)-2-thia-10,13,16,19-tetraaza-tricyclo[19.4.0.0*3,8*]pentacosa-1(21),3,5,7,22,24-hexaene-11,14,17-trione], for which the MIC came to 0.5 µg/mL (≈ 0.696 µM). Consider `Cc1cccc2c1Sc1ccccc1CN[C@@H](CCCN)C(=O)N[C@@H](CCCCN)C(=O)N(C)[C@@H](Cc1c(C)[nH]c3ccccc13)C(=O)NC2` [Example 58, (12S,15S,18S)-15-(4-Amino-butyl)-18-(3-amino-propyl)-4,13-dimethyl-12-(2-methyl-1H-indol-3-ylmethyl)-2-thia-10,13,16,19-tetraaza-tricyclo[19.4.0.0*3,8*]pentacosa-1(21),3,5,7,22,24-hexaene-11,14,17-trione], for which the minimum inhibitory concentration (MIC) was 0.5 µg/mL (≈ 0.716 µM).

In the case of `Cc1[nH]c2ccccc2c1C[C@H]1C(=O)NCc2cc(Cl)cc(Cl)c2Sc2ccccc2CN[C@@H](CCCN)C(=O)N[C@@H](CCCCN)C(=O)N1C` [Example 59, (12S,15S,18S)-15-(4-Amino-butyl)-18-(3-amino-propyl)-4,6-dichloro-13-methyl-12-(2-methyl-1H-indol-3-yl)-2-methyl)-2-thia-10,13,16,19-tetraaza-tricyclo[19.4.0.0*3,8*]pentacosa-1(21),3,5,7,22,24-hexaene-11,14,17-trione], the minimal inhibitory concentration (MIC) turned out to be 0.5 µg/mL (≈ 0.664 µM). The figure for `C[C@@H]1NC(=O)[C@H](Cc2c[nH]c3ccccc23)N(C)C(=O)[C@H](CCCCN)NC(=O)[C@H](CCCN)NCc2ccccc2Sc2c(Cl)cccc21` [Example 60, (9S,12S,15S,18S)-15-(4-Amino-butyl)-18-(3-amino-propyl)-4-chloro-12-(1H-indol-3-ylmethyl)-9,13-dimethyl-2-thia-10,13,16,19-tetraaza-tricyclo[19.4.0.0*3,8*]pentacosa-1(25),3,5,7,21,23-hexaene-11,14,17-trione] is 2 µg/mL (≈ 2.78 µM); for `COc1ccc2c(c1)CNC(=O)[C@H](Cc1c[nH]c3ccccc13)N(C)C(=O)[C@H](CCCCN)NC(=O)[C@H](CCCN)NCc1cccnc1S2` [Example 61, (11S,14S,17S)-14-(4-Amino-butyl)-11-(3-amino-propyl)-17-(1H-indol-3-ylmethyl)-23-methoxy-16-methyl-2-thia-4,10,13,16,19-pentaaza-tricyclo[19.4.0.0*3,8*]pentacosa-1(25),3,5,7,21,23-hexaene-12,15,18-trione] it is 4 µg/mL (≈ 5.71 µM); for `CN1C(=O)[C@H](CCCCN)NC(=O)[C@H](CCCN)NCc2cccnc2Sc2c(Cl)cc(C(F)(F)F)cc2CNC(=O)[C@@H]1Cc1c[nH]c2ccccc12` [Example 62, (11S,14S,17S)-14-(4-Amino-butyl)-11-(3-amino-propyl)-25-chloro-17-(1H-indol-3-ylmethyl)-16-methyl-23-trifluoromethyl-2-thia-4,10,13,16,19-pentaaza-tricyclo[19.4.0.0*3,8*]pentacosa-1(25),3,5,7,21,23-hexaene-12,15,18-trione] it is 0.12 µg/mL (≈ 0.155 µM). The figure for `CN1C(=O)[C@H](CCCCN)NC(=O)[C@H](CCCN)NCc2ccccc2Sc2cnccc2CNC(=O)[C@@H]1Cc1c[nH]c2ccccc12` [Example 63, (12S,15S,18S)-15-(4-Amino-butyl)-18-(3-amino-propyl)-12-(1H-indol-3-ylmethyl)-13-methyl-2-thia-5,10,13,16,19-pentaaza-tricyclo[19.4.0.0*3,8*]pentacosa-1(25),3,5,7,21,23-hexaene-11,14,17-trione] is 32 µg/mL (≈ 47.7 µM); for `CN1C(=O)[C@H](CCCCN)NC(=O)[C@H](CCCN)NCc2cc(F)ccc2Sc2c(Cl)cccc2CNC(=O)[C@@H]1Cc1c[nH]c2ccccc12` [Example 64, (12S,15S,18S)-15-(4-Amino-butyl)-18-(3-amino-propyl)-4-chloro-23-fluoro-12-(1H-indol-3-ylmethyl)-13-methyl-2-thia-10,13,16,19-tetraaza-tricyclo[19.4.0.0*3,8*]pentacosa-1(25),3,5,7,21,23-hexaene-11,14,17-trione] it is 32 µg/mL (≈ 44.3 µM); for `Cc1cccc2c1Sc1ccc(F)cc1CN[C@@H](CCCN)C(=O)N[C@@H](CCCCN)C(=O)N(C)[C@@H](Cc1c[nH]c3ccccc13)C(=O)NC2` [Example 65, (12S,15S,18S)-15-(4-Amino-butyl)-18-(3-amino-propyl)-23-fluoro-12-(1H-indol-3-ylmethyl)-4,13-dimethyl-2-thia-10,13,16,19-tetraaza-tricyclo[19.4.0.0*3,8*]pentacosa-1(25),3,5,7,21,23-hexaene-11,14,17-trione] it is 32 µg/mL (≈ 45.6 µM). The figure for `CCc1ccc2c(c1)CNC(=O)[C@H](Cc1c[nH]c3ccccc13)N(C)C(=O)[C@H](CCCCN)NC(=O)[C@H](CCCN)NCc1ccccc1S2` [Example 66, (12S,15S,18S)-15-(4-Amino-butyl)-18-(3-amino-propyl)-6-ethyl-12-(1H-indol-3-ylmethyl)-13-methyl-2-thia-10,13,16,19-tetraaza-tricyclo[19.4.0.0*3,8*]pentacosa-1(25),3,5,7,21,23-hexaene-11,14,17-trione] is 0.5 µg/mL (≈ 0.716 µM); for `CN1C(=O)[C@H](CCCCN)NC(=O)[C@H](CCCN)NCc2cccnc2Sc2c(Cl)cc(Cl)cc2CNC(=O)[C@@H]1Cc1c[nH]c2ccccc12` [Example 67, (11S,14S,17S)-14-(4-Amino-butyl)-11-(3-amino-propyl)-23,25-dichloro-17-(1H-indol-3-ylmethyl)-16-methyl-2-thia-4,10,13,16,19-pentaaza-tricyclo[19.4.0.0*3,8*]pentacosa-1(25),3,5,7,21,23-hexaene-12,15,18-trione] it is 0.12 µg/mL (≈ 0.162 µM); for `CN1C(=O)[C@H](CCCCN)NC(=O)[C@H](CCCN)NCc2cccnc2Sc2c(C(F)(F)F)ccc(Cl)c2CNC(=O)[C@@H]1Cc1c[nH]c2ccccc12` [Example 68, (11S,14S,17S)-14-(4-Amino-butyl)-11-(3-amino-propyl)-22-chloro-17-(1H-indol-3-ylmethyl)-16-methyl-25-trifluoromethyl-2-thia-4,10,13,16,19-pentaaza-tricyclo[19.4.0.0*3,8*]pentacosa-1(25),3,5,7,21,23-hexaene-12,15,18-trione] it is 0.5 µg/mL (≈ 0.647 µM). As for `CN1C(=O)[C@H](CCCCN)NC(=O)[C@H](CCCN)NCc2ccccc2Sc2ccc(-c3ccccc3)cc2CNC(=O)[C@@H]1Cc1c[nH]c2ccccc12` [Example 69, (12S,15S,18S)-15-(4-Amino-butyl)-18-(3-amino-propyl)-12-(1H-indol-3-ylmethyl)-13-methyl-6-phenyl-2-thia-10,13,16,19-tetraaza-tricyclo[19.4.0.0*3,8*]pentacosa-1(25),3,5,7,21,23-hexaene-11,14,17-trione], the minimal inhibitory concentration (MIC) amounted to 4 µg/mL (≈ 5.36 µM).

In the case of `CN1C(=O)[C@H](CCCCN)NC(=O)[C@H](CCCN)NCc2ccccc2Sc2ccc(C(C)(C)C)cc2CNC(=O)[C@@H]1Cc1c[nH]c2ccccc12` [Example 70, (12S,15S,18S)-15-(4-Amino-butyl)-18-(3-amino-propyl)-6-tert-butyl-12-(1H-indol-3-ylmethyl)-13-methyl-2-thia-10,13,16,19-tetraaza-tricyclo[19.4.0.0*3,8*]pentacosa-1(25),3,5,7,21,23-hexaene-11,14,17-trione], the minimal inhibitory concentration (MIC) was 2 µg/mL (≈ 2.75 µM).
